Measurements reported in patent US20120252792A1, “METHODS AND COMPOSITIONS FOR MODULATING RHO-MEDIATED GENE TRANSCRIPTION” (THE REGENTS OF THE UNIVERSITY OF MICHIGAN, priority 2009, published 2012).

Key:
[1] = system: Rho/MKL1 pathway; experiment: SRE.L-firefly luciferase reporter (dual luciferase assay), Gα12QL-transfected PC-3 cells; format: cell-based, human; conditions: Homo sapiens; for inhibition at 10 µM / inhibition at 100 µM: DMSO alone = 0%; for inhibition at 10 µM: read-out: % inh SRE.L (10 μM); for inhibition at 100 µM: read-out: % inh SRE.L (100 μM)
Protocol: Dual Luciferase Assay: Seed PC-3 prostate cancer cells (40,000 cells/well) were grown in 96-well plates in 10% FBS containing DMEM medium. Cells were transiently transfected with the Gα12QL activator of the Rho/MKL1 pathway, along with the SRE.L-firefly luciferase reporter construct for 6 hours. Additionally, cells were co-transfected with the TK-Renilla luciferase reporter as an indicator of non-specific compound effects. Various concentrations of selected compounds were added to the 96-well plates. Plates were incubated for 19 hours at 37° C. and 5% CO2 in 0.5% FBS containing DMEM medium. Cells were lysed with 1X Passive Lysis Buffer (Promega). Plates were incubated for 30 minutes at room temperature. Luminescence counts were read with a Victor2 (Perkin-Elmer) plate reader.

[2] = system: PC-3 prostate cancer cells; experiment: WST1 cell viability assay; format: cell-based, human; conditions: Homo sapiens, PC-3 cells, just before lysis; for inhibition at 10 µM: PC-3, 10 μM, read-out: % inh WST-1 (10 μM); for inhibition at 100 µM: PC-3, 100 μM, read-out: % inh WST-1 (100 μM)
Protocol: WST1 Cell Viability Assay: One hour prior to cell lysis for the dual luciferase assay, 10 μl per well of WST1 reagent (Roche) was added to the 96-well plates. Plates were incubated for 1 hour at 37° C. and 5% CO2. Cell viability was measured by WST1 absorbance at 450 nm with a Victor2 (Perkin-Elmer) plate reader.

SMILES	IC50 ([1]; 19 h) [µM]	inhibition at 10 µM ([1]; 19 h) [%]	inhibition at 100 µM ([1]; 19 h) [%]	inhibition at 10 µM [2] [%]	inhibition at 100 µM [2] [%]	IC50 ([1]; 19 hrs) [µM]
O=C(NCCc1cn(-c2ccc(Cl)cc2)nn1)c1cc(C(F)(F)F)cc(C(F)(F)F)c1 [Compound 41]	> 100	–	–	–	–	–
O=C(NC1CC(=O)N(c2ccc(Cl)cc2)C1)c1cc(F)cc(F)c1 (centres unmarked) [Compound 49, N-(1-(4-chlorophenyl)-5-oxopyrrolidin-3-yl)-3,5-difluorobenzamide]	–	-8.4	13.4	-6.1	0.6	–
O=C(CCc1cn(-c2cc(C(F)(F)F)cc(C(F)(F)F)c2)nn1)Nc1ccc(Cl)cc1 [Compound 40]	> 100	–	–	–	–	–
O=C(CCNC(=O)c1cc(C(F)(F)F)cc(C(F)(F)F)c1)NCc1ccc(Cl)cc1 [Compound 25, N-(3-(4-chlorobenzylamino)-3-oxopropyl)-3,5-bis(trifluoromethyl)benzamide]	5	–	–	–	–	–
O=C(NCCCNc1ccc(Cl)cc1)c1cc(F)cc(F)c1 [Compound 43, N-(3-((4-chlorophenyl)amino)propyl)-3,5-difluorobenzamide]	34.7	-6.5	95.7	-9.9	73	–
O=C(N[C@@H]1CCC[C@@H]1C(=O)Nc1ccc(Cl)cc1)c1cc(C(F)(F)F)cc(C(F)(F)F)c1 [Compound 39]	> 100	–	–	–	–	–
COc1ccc(N2CC(NC(=O)c3cc(C(F)(F)F)cc(C(F)(F)F)c3)CC2=O)cc1Cl (centres unmarked) [Compound 55, N-(1-(3-chloro-4-methoxyphenyl)-5-oxopyrrolidin-3-yl)-3,5-bis(trifluoromethyl)benzamide]	–	4.5	26	7.4	23.9	–
O=C(NC1CC(=O)N(c2ccc(Cl)cc2)C1)OCc1cc(F)cc(F)c1 (centres unmarked) [Compound 46, 3,5-difluorobenzyl (1-(4-chlorophenyl)-5-oxopyrrolidin-3-yl)carbamate]	–	13.7	76.1	0.1	67.5	–
O=C(c1cc(C(F)(F)F)cc(C(F)(F)F)c1)N1CCC(Nc2ccc(Cl)cc2)CC1 [Compound 17, (3,5-bis(trifluoromethyl)phenyl)(4-(4-chlorophenylamino)piperidin-1-yl)methanone]	–	–	–	–	–	10.8
O=C(NCCCNc1ccc(Cl)cn1)c1cc(C(F)(F)F)cc(C(F)(F)F)c1 [Compound 44, N-(3-((5-chloropyridin-2-yl)amino)propyl)-3,5-bis(trifluoromethyl)benzamide]	654	20.5	82.9	17.6	39.4	–
O=C(NC1CC(=O)N(c2ccc(Cl)cc2)C1)OCc1ccccc1 (centres unmarked) [Compound 31, Benzyl 1-(4-chlorophenyl)-5-oxopyrrolidin-3-ylcarbamate]	54.7	–	–	–	–	–
O=C(Nc1cc(C(F)(F)F)cc(C(F)(F)F)c1)C1CC(=O)N(c2ccc(Cl)cc2)C1 (centres unmarked) [Compound 51, N-(3,5-bis(trifluoromethyl)phenyl)-1-(4-chlorophenyl)-5-oxopyrrolidine-3-carboxamide]	–	74.3	99.2	55.9	74.6	–
COc1cc(NCCCNC(=O)c2cc(C(F)(F)F)cc(C(F)(F)F)c2)ccc1Cl [Compound 21, N-(3-(4-chloro-3-methoxyphenylamino)propyl)-3,5-bis(trifluoromethyl)benzamide]	7.3	–	–	–	–	–
O=C(NC1CC(=O)N(c2ccc(Cl)cc2)C1)c1cc(C(F)(F)F)cc(C(F)(F)F)c1 (centres unmarked) [Compound 47, N-(1-(4-chlorophenyl)-5-oxopyrrolidin-3-yl)-3,5-bis(trifluoromethyl)benzamide]	18	18	57.8	-0.8	14.3	–
COc1ccc(NC(=O)CONC(=O)c2cc(C(F)(F)F)cc(C(F)(F)F)c2)cc1Cl [Compound 9, N-(2-(3-chloro-4-methoxyphenylamino)-2-oxoethoxy)-3,5-bis(trifluoromethyl)benzamide]	11.4	–	–	–	–	–
CC(C)(C)OC(=O)NC1CCN(c2ccc(Cl)cc2)C1 (centres unmarked) [Compound 57, tert-butyl (1-(4-chlorophenyl)pyrrolidin-3-yl)carbamate]	–	-44.4	18.7	9.2	21.1	–

SMILES	IC50 ([1]; 19 h) [µM]	inhibition at 10 µM ([1]; 19 h) [%]	inhibition at 100 µM ([1]; 19 h) [%]	inhibition at 10 µM [2] [%]	inhibition at 100 µM [2] [%]	IC50 ([1]; 19 hrs) [µM]
O=C(c1cc(C(F)(F)F)cc(C(F)(F)F)c1)N1CCC(=O)N(c2ccc(Cl)cc2)CC1 [Compound 24, 1-(3,5-bis(trifluoromethyl)benzoyl)-4-(4-chlorophenyl)-1,4-diazepan-5-one]	> 100	–	30	–	–	–
O=C(NC1CC(=O)N(c2ccc(Cl)cc2)C1)OCc1cc(C(F)(F)F)cc(C(F)(F)F)c1 (centres unmarked) [Compound 45, 3,5-bis(trifluoromethyl)benzyl (1-(4-chlorophenyl)-5-oxopyrrolidin-3-yl)carbamate]	13.4	9.4	68	0.6	8.4	–
O=C(NCCCNc1ccc(Cl)nc1)c1cc(C(F)(F)F)cc(C(F)(F)F)c1 [Compound 42, N-(3-((6-chloropyridin-3-yl)amino)propyl)-3,5-bis(trifluoromethyl)benzamide]	24.4	-1.7	95.1	-7.4	64.7	–
COc1ccc(NC(=O)CCNC(=O)c2cc(C(F)(F)F)cc(C(F)(F)F)c2)cc1Cl [Compound 13, N-(3-(3-chloro-4-methoxyphenylamino)-3-oxopropyl)-3,5-bis(trifluoromethyl)benzamide]	142	–	–	–	–	–
O=C1CC(NC(=O)c2cc(C(F)(F)F)cc(C(F)(F)F)c2)c2cc(Cl)ccc2N1 (centres unmarked) [Compound 48, N-(6-chloro-2-oxo-1,2,3,4-tetrahydroquinolin-4-yl)-3,5-bis(trifluoromethyl)benzamide]	–	4.9	2.5	4.3	-2.7	–
COc1cc(N2CC(NC(=O)c3cc(C(F)(F)F)cc(C(F)(F)F)c3)CC2=O)ccc1Cl (centres unmarked) [Compound 52, N-(1-(4-chloro-3-methoxyphenyl)-5-oxopyrrolidin-3-yl)-3,5-bis(trifluoromethyl)benzamide]	–	-18.4	16.9	-0.3	42.2	–
O=C(c1cc(C(F)(F)F)cc(C(F)(F)F)c1)N1CCCC(CNc2ccc(Cl)cc2)C1 (centres unmarked) [Compound 56]	–	11.5	8.3	24.8	22.4	–
FC(F)(F)c1cc(CN2CCCC(CNc3ccc(Cl)cc3)C2)cc(C(F)(F)F)c1 (centres unmarked) [Compound 50, N-((1-(3,5-bis(trifluoromethyl)benzyl)piperidin-3-yl)methyl)-4-chloroaniline]	–	0.9	70.2	20.9	32.2	–
COc1ccc(NCCCNC(=O)c2cc(C(F)(F)F)cc(C(F)(F)F)c2)cc1Cl [Compound 20, N-(3-(3-chloro-4-methoxyphenylamino)propyl)-3,5-bis(trifluoromethyl)benzamide]	9.9	–	–	–	–	–
O=C1Nc2ccc(Cl)cc2C1=CNC(=O)c1cc(C(F)(F)F)cc(C(F)(F)F)c1 [Compound 54, N-((5-chloro-2-oxoindolin-3-ylidene)methyl)-3,5-bis(trifluoromethyl)benzamide]	–	6.5	12.2	10.6	17.7	–
O=C(NCC1CCN(c2ccc(Cl)cc2)C1=O)c1cc(C(F)(F)F)cc(C(F)(F)F)c1 (centres unmarked) [Compound 53, N-((1-(4-chlorophenyl)-2-oxopyrrolidin-3-yl)methyl)-3,5-bis(trifluoromethyl)benzamide]	–	14.1	32.3	7.9	26.9	–
O=C(NC1CCN(c2ccc(Cl)cc2)C1)c1cc(C(F)(F)F)cc(C(F)(F)F)c1 (centres unmarked) [Compound 58, N-(1-(4-chlorophenyl)pyrrolidin-3-yl)-3,5-bis(trifluoromethyl)benzamide]	–	-4.6	10.5	-10.5	-1.7	–
O=C(Nc1ccc(Cl)cc1)C1CCCN(C(=O)c2cc(C(F)(F)F)cc(C(F)(F)F)c2)C1 (centres unmarked) [Compound 4, 1-(3,5-bis(trifluoromethyl)benzoyl)-N-(4-chlorophenyl)piperidine-3-carboxamide]	–	–	–	0	14	–
COc1ccc(NC(=O)C2CCCN(C(=O)c3cc(C(F)(F)F)cc(C(F)(F)F)c3)C2)cc1Cl (centres unmarked) [Compound 12, 1-(3,5-bis(trifluoromethyl)benzoyl)-N-(3-chloro-4-methoxyphenyl)piperidine-3-carboxamide]	6	–	–	–	–	–
CN(C(=O)CONC(=O)c1cc(C(F)(F)F)cc(C(F)(F)F)c1)c1ccc(Cl)cc1 [Compound 11, N-(2-((4-chlorophenyl)(methyl)amino)-2-oxoethoxy)-3,5-bis(trifluoromethyl)benzamide]	111	–	–	–	–	–
